Legend:
[1] = biological target: T1, Prostaglandin D2 receptor 2 (Homo sapiens, UniProt Q9Y5Y4); assay: Antagonist activity at CRTh2 (unknown origin) stably expressed in PGD2-stimulated CHO.K1 cells preincubated for 1 hr by radio-labelled [35S]-GTPgammaS binding assay; type: functional, cell-based
T1 sequence (Q9Y5Y4 whole entry): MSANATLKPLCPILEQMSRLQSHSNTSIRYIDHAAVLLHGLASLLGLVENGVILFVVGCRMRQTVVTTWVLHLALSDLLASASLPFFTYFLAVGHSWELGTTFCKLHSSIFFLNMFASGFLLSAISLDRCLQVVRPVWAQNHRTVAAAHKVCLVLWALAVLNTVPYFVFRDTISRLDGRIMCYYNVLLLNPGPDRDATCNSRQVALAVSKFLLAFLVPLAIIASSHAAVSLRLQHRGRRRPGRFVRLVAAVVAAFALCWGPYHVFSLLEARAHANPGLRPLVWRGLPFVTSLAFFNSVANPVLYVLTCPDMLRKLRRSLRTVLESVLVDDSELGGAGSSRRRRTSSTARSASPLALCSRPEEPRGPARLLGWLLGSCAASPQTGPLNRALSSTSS

[2] = Apparent permeability across apical to basolateral side of human Caco2 cells at pH 7.4; type: ADME, cell-based; conditions: Caco-2, pH 7.4
[3] = biological target: T2, Prostaglandin D2 receptor 2 (Homo sapiens) (UniProt Q9Y5Y4); conditions: CHO.K1
T2 sequence (whole entry): T1 sequence (Q9Y5Y4 whole entry)
Description: Antagonist activity at CRTh2 (unknown origin) stably expressed in PGD2-stimulated CHO.K1 cells assessed as dissociation half-life at 5 to 10 times IC50 after 2 hrs by radio-labelled [35S]-GTPgammaS binding assay

[4] = Dissociation constant, pKa of the compound by potentiometric method; type: physicochemical
[5] = biological target: T3, Prostaglandin D2 receptor (Homo sapiens) (UniProt Q13258); assay: Inhibition of at prostanoid DP1 receptor (unknown origin) at 10 uM
T3 sequence (whole entry): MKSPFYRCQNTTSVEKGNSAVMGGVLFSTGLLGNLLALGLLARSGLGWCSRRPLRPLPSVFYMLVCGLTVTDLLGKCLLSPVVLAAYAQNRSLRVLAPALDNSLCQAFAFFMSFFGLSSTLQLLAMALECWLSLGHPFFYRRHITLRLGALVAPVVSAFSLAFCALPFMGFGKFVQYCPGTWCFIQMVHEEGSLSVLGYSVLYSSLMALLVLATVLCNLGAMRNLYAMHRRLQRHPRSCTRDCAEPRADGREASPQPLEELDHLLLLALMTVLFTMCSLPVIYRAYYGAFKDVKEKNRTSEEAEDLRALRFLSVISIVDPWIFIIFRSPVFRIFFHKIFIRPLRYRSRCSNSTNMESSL

[6] = biological target: T4, Thromboxane A2 receptor (Homo sapiens) (UniProt P21731); assay: Inhibition of at prostanoid TP receptor (unknown origin) at 10 uM
T4 sequence (whole entry): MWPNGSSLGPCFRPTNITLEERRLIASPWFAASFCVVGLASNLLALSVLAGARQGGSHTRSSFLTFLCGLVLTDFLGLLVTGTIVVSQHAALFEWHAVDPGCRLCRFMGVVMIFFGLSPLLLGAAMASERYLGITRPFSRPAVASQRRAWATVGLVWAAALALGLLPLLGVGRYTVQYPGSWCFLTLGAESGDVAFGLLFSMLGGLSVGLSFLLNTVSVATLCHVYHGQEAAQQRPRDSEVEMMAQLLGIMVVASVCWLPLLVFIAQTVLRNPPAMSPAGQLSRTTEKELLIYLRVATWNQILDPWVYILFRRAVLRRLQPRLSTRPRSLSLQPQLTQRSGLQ

[7] = Cmax in rat at 1 mg/kg, iv; type: ADME, organism-based; design: dose 1 mg/kg, route intravenous; conditions: in vivo
[8] = Clearance in rat at 1 mg/kg, iv; type: ADME, organism-based; design: dose 1 mg/kg, route intravenous; conditions: in vivo
[9] = AUC (0 to infinity) in rat at 1 mg/kg, iv; type: ADME, organism-based; design: time infinity, dose 1 mg/kg, route intravenous; conditions: plasma
[10] = Volume of distribution at steady state in rat at 1 mg/kg, iv; type: ADME, organism-based; design: dose 1 mg/kg, route intravenous; conditions: in vivo, read-out: Vdss
[11] = Terminal half life in rat at 1 mg/kg, iv; type: ADME, organism-based; design: dose 1 mg/kg, route intravenous; conditions: in vivo, read-out: beta t1/2 (converted)
[12] = Cmax in rat at 10 mg/kg, po; type: ADME, organism-based; design: dose 10 mg/kg, route oral; conditions: in vivo
[13] = AUC (0 to infinity) in rat at 10 mg/kg, po; type: ADME, organism-based; design: time infinity, dose 10 mg/kg, route oral; conditions: plasma
[14] = Terminal half life in rat at 10 mg/kg, po; type: ADME, organism-based; design: dose 10 mg/kg, route oral; conditions: in vivo, read-out: beta t1/2 (converted)
[15] = Oral bioavailability in rat at 10 mg/kg; type: ADME, organism-based; conditions: in vivo
[16] = biological target: T1, Prostaglandin D2 receptor 2; assay: Antagonist activity at CRTh2 (unknown origin) stably expressed in CHO.K1 cells co-mixing the compound and PGD2 by radio-labelled [35S]-GTPgammaS binding assay; type: functional, cell-based
[17] = biological target: T1, Prostaglandin D2 receptor 2; assay: Antagonist activity at CRTh2 (unknown origin) stably expressed in PGD2-stimulated CHO.K1 cells preincubated for 15 mins by radio-labelled [35S]-GTPgammaS binding assay; type: functional, cell-based
[18] = biological target: T1, Prostaglandin D2 receptor 2; assay: Antagonist activity at CRTh2 (unknown origin) stably expressed in PGD2-stimulated CHO.K1 cells preincubated for 30 mins by radio-labelled [35S]-GTPgammaS binding assay; type: functional, cell-based
[19] = biological target: T1, Prostaglandin D2 receptor 2; assay: Antagonist activity at CRTh2 (unknown origin) stably expressed in PGD2-stimulated CHO.K1 cells preincubated for 60 mins by radio-labelled [35S]-GTPgammaS binding assay; type: functional, cell-based
[20] = biological target: T1, Prostaglandin D2 receptor 2; assay: Antagonist activity at CRTh2 (unknown origin) stably expressed in PGD2-stimulated CHO.K1 cells preincubated for 120 mins by radio-labelled [35S]-GTPgammaS binding assay; type: functional, cell-based
[21] = biological target: T1, Prostaglandin D2 receptor 2; assay: Antagonist activity at CRTh2 (unknown origin) stably expressed in PGD2-stimulated CHO.K1 cells preincubated for 180 mins by radio-labelled [35S]-GTPgammaS binding assay; type: functional, cell-based

| SMILES | IC50 [1] [nM] | T1/2 [3] [h] | also measured |
| --- | --- | --- | --- |
| CCS(=O)(=O)c1ccccc1Cc1c2c(n(CC(=O)O)c1C)CCNC2=O | 550 | – | – |
| Cc1c(Cc2ccccc2-c2cccc3ccccc23)c2c(n1CC(=O)O)CCNC2=O | 480 | – | – |
| Cc1c(Cc2ccccc2S(=O)(=O)c2ccccc2)c2c(=O)[nH]ccc2n1CC(=O)O | – | 1.3 | Papp A→B [2]: 0.1 ×10⁻⁶ cm/s |
| Cc1c(Cc2ccc(S(C)(=O)=O)cc2)c2c(n1CC(=O)O)CCNC2=O | 900 | – | – |
| Cc1c(Cc2ccccc2Cn2ccnn2)c2c(n1CC(=O)O)CCNC2=O | 800 | – | – |
| Cc1c(Cc2ccccc2S(=O)(=O)C2CCCCC2)c2c(n1CC(=O)O)CCNC2=O | 28 | – | – |
| Cc1c(Cc2ccccc2C(O)c2ccccc2)c2c(n1CC(=O)O)CCNC2=O (centres undefined) | 32 | 0.4 | pKa [4]: 3.1 |
| Cc1c(Cc2ccccc2C(=O)c2ccccc2)c2c(n1CC(=O)O)CCNC2=O | 810 | – | – |
| COc1ccc(S(=O)(=O)c2ccccc2)c(Cc2c3c(n(CC(=O)O)c2C)CCNC3=O)c1 | – | 4.2 | inhibition [5]: < 30%; inhibition [6]: < 30% |
| CNC(=O)c1cccc(S(=O)(=O)c2ccccc2Cc2c3c(n(CC(=O)O)c2C)CCNC3=O)c1 | 240 | – | – |
| Cc1c(Cc2ccccc2S(=O)(=O)c2ccccc2)c2c(n1CC(=O)O)CCN(Cc1ccccc1)C2=O | – | 6.7 | inhibition [5]: < 30%; inhibition [6]: < 30%; pKa [4]: 3.3 |
| Cc1c(Cc2ccccc2Oc2ccccc2)c2c(n1CC(=O)O)CCNC2=O | 530 | – | – |
| Cc1c(Cc2ccc(C(F)(F)F)cc2S(=O)(=O)c2ccccc2)c2c(n1CC(=O)O)CCNC2=O | – | 0.9 | inhibition [5]: < 30%; inhibition [6]: < 30% |
| Cc1c(Cc2cc(F)ccc2S(=O)(=O)c2ccccc2)c2c(n1CC(=O)O)CCNC2=O | – | 1.7 | – |
| Cc1c(Cc2ccccc2Cc2ccccc2)c2c(n1CC(=O)O)CCNC2=O | 120 | – | Papp A→B [2]: 0.2 ×10⁻⁶ cm/s |
| COc1cccc(Cc2c3c(n(CC(=O)O)c2C)CCNC3=O)c1S(=O)(=O)c1ccccc1 | – | 0.4 | – |
| COc1ccc(S(=O)(=O)c2ccc(F)cc2)c(Cc2c3c(n(CC(=O)O)c2C)CCNC3=O)c1 | 7.1 | 23 | inhibition [5]: < 30%; inhibition [6]: < 30%; pKa [4]: 3.1; Cmax [7]: 1960 ng/mL; clearance [8]: 27 mL/min/kg; AUC(0-inf) [9]: 613 ng·h/mL; Vd [10]: 0.31 L/kg; half-life [11]: 0.3 h; Cmax [12]: 36 ng/mL; AUC(0-inf) [13]: 76 ng·h/mL; half-life [14]: 2.2 h; bioavailability [15]: 1.2%; IC50 [16]: 10 nM; IC50 [17]: 6.9 nM; IC50 [18]: 4.1 nM; IC50 [19]: 3.6 nM; IC50 [20]: 2.4 nM; IC50 [21]: 2.1 nM |
| Cc1c(Cc2ccccc2S(=O)(=O)c2ccccc2)c2c(Cl)nccc2n1CC(=O)O | 16 | 2 | – |
| Cc1c(Cc2ccccc2S(=O)(=O)c2ccc(Cl)cc2)c2c(n1CC(=O)O)CCNC2=O | 8.5 | 1.2 | – |
| Cc1c(Cc2ccccc2S(=O)(=O)c2ccccc2)c2c(n1CC(=O)O)CCN(C)C2=O | 7 | 5.3 | pKa [4]: 2.9 |
| Cc1c(Cc2ccc(S(=O)(=O)Cc3ccccc3)cc2)c2c(n1CC(=O)O)CCNC2=O | 3 | 0.9 | – |
| Cc1c(Cc2ccccc2S(=O)(=O)c2cccc(Cl)c2)c2c(n1CC(=O)O)CCNC2=O | – | 1.2 | inhibition [5]: < 30%; inhibition [6]: < 30%; pKa [4]: 3.1 |
| COc1ccc(S(=O)(=O)c2ccccc2Cc2c3c(n(CC(=O)O)c2C)CCNC3=O)cc1 | – | 3.2 | – |

| SMILES | IC50 [1] [nM] | T1/2 [3] [h] | also measured |
| --- | --- | --- | --- |
| Cc1c(Cc2ccccc2S(=O)(=O)N(C)Cc2ccccc2)c2c(n1CC(=O)O)CCNC2=O | 26 | 0.6 | – |
| Cc1c(Cc2cc(C#N)ccc2S(=O)(=O)c2ccccc2)c2c(n1CC(=O)O)CCNC2=O | 28 | 0.6 | – |
| Cc1c(Cc2ccccc2S(=O)(=O)c2ccccc2)c2c(n1[C@@H](C)C(=O)O)CCNC2=O | 91 | – | – |
| Cc1c(Cc2ccccc2S(=O)(=O)c2cccc(F)c2)c2c(n1CC(=O)O)CCNC2=O | – | 0.8 | inhibition [5]: < 30%; inhibition [6]: < 30% |
| Cc1c(Cc2ccccc2S(=O)(=O)c2ccccc2)c2c(n1CC(=O)O)CCN(C(C)C)C2=O | 9 | 2.6 | pKa [4]: 2.9 |
| Cc1c(Cc2cc(Br)ccc2S(=O)(=O)c2ccccc2)c2c(n1CC(=O)O)CCNC2=O | – | 5.7 | – |
| Cc1c(Cc2ccc(C(=O)O)cc2S(=O)(=O)c2ccccc2)c2c(n1CC(=O)O)CCNC2=O | 19 | – | – |
| Cc1c(Cc2ccccc2S(=O)(=O)c2ccccc2F)c2c(n1CC(=O)O)CCNC2=O | – | 1.1 | – |
| Cc1c(Cc2ccccc2S(=O)(=O)N2CCOCC2)c2c(n1CC(=O)O)CCNC2=O | 22 | 0.6 | – |
| CCN(Cc1ccccc1Cc1c2c(n(CC(=O)O)c1C)CCNC2=O)C(=O)C1CC1 | 240 | – | – |
| Cc1c(Cc2ccccc2S(=O)(=O)c2ccc(F)cc2)c2c(n1CC(=O)O)CC(C)(C)NC2=O | – | 18 | – |
| Cc1c(Cc2ccccc2S(=O)(=O)c2ccccc2)c2c(=O)n(C)ccc2n1CC(=O)O | – | 8 | inhibition [5]: < 30%; inhibition [6]: < 30%; Papp A→B [2]: 0.1 ×10⁻⁶ cm/s |
| Cc1c(Cc2ccccc2S(=O)(=O)c2ccccc2)c2c(n1[C@H](C)C(=O)O)CCNC2=O | 430 | – | – |
| COc1ccc(S(=O)(=O)c2ccc(F)cc2)c(Cc2c3c(n(CC(=O)O)c2C)CC(C)(C)NC3=O)c1 | 5 | 20 | – |
| Cc1c(Cc2ccccc2S(=O)(=O)c2ccccc2)c2c(n1CC(=O)O)CCN(C(C)C(F)(F)F)C2=O (centres undefined) | 6 | 2.1 | Papp A→B [2]: 0.6 ×10⁻⁶ cm/s |
| Cc1c(Cc2ccccc2S(=O)(=O)c2ccccc2)c2c(=O)n(C(F)F)ccc2n1CC(=O)O | 2.2 | 21 | inhibition [5]: < 30%; inhibition [6]: < 30%; Papp A→B [2]: 0.4 ×10⁻⁶ cm/s |
| Cc1c(Cc2ccc(S(=O)(=O)c3ccccc3)cc2)c2c(n1CC(=O)O)CCNC2=O | 170 | – | – |
| COc1cccc(S(=O)(=O)c2ccccc2)c1Cc1c2c(n(CC(=O)O)c1C)CCNC2=O | 4500 | – | – |
| COC(=O)c1ccc(Cc2c3c(n(CC(=O)O)c2C)CCNC3=O)c(S(=O)(=O)c2ccccc2)c1 | – | 1.8 | – |
| CNC(=O)c1ccc(Cc2c3c(n(CC(=O)O)c2C)CCNC3=O)c(S(=O)(=O)c2ccccc2)c1 | 10 | 4.6 | – |
| Cc1c(Cc2ccccc2S(=O)(=O)c2ccc(OC(F)(F)F)cc2)c2c(n1CC(=O)O)CCNC2=O | 6.6 | 1.3 | – |
| Cc1c(Cc2ccccc2S(=O)(=O)c2ccc(F)cc2)c2c(n1CC(=O)O)CCNC2=O | 3.3 | 3.3 | inhibition [5]: < 30%; inhibition [6]: < 30%; Cmax [7]: 5740 ng/mL; clearance [8]: 6.8 mL/min/kg; AUC(0-inf) [9]: 2460 ng·h/mL; Vd [10]: 0.19 L/kg; half-life [11]: 2.2 h; Cmax [12]: 102 ng/mL; AUC(0-inf) [13]: 380 ng·h/mL; half-life [14]: 5.6 h; bioavailability [15]: 1.5% |

From ChEMBL document CHEMBL3351921, “Structure-activity relationships (SAR) and structure-kinetic relationships (SKR) of pyrrolopiperidinone acetic acids as CRTh2 antagonists” (Bioorg Med Chem Lett, 2014)
